Assay: In vitro release of olopatadine from polymer gel films (USP Apparatus 7, HPLC-UV)
Format: physicochemical
Details: FIGS. 1A and 1B
Description: Release of olopatadine from polymer gel films was studied in vitro using water or phosphate buffered saline (PBS) as the dissolution media. Dissolution was performed using USP Apparatus 7 and samples were collected by its autosampler. HPLC—with UV-vis detector was used to measure component concentration during dissolution samples at different time points. […] Olopatadine HCl remains as a zwitterion at physiological pH due to the negatively charged carboxylic group and positively charged tertiary amino group on the molecule, therefore possible mechanism of API release from the gel films into dissolution media is through ion exchange. HA in gel films may complex with olopatadine through ionic interaction. […] Dissolution media plays a main role in the release profiles, as ionic bonding occurred between HA and Olopatadine. Ionic polymer provides some prolong release. Diffusion is believed to be the main release mechanism. PBS: phosphate-buffered saline pH 7.2; DI water: deionized water.

Olopatadine release rate, PBS versus water (dissolution media PBS pH 7.2 or DI water): faster in PBS than in water
Burst release of olopatadine (water and PBS): no burst release
SMILES: CN(C)CC/C=C1/c2ccccc2COc2ccc(CC(=O)O)cc21.Cl [olopatadine, 11-[(Z)-3-(Dimethylamino)propylidene]-6-11-dihydrodibenz[b,e] oxepin-2-acetic acid hydrochloride]
